Test results: ChEMBL document CHEMBL1122770, “Quantitative structure-activity relationship of insect juvenile hormone mimetic compounds” (J Med Chem, 1984)

tested on: Tenebrio molitor; assay: Juvenile hormone mimetic activity in Tenebrio molitor (yellow mealworm); assay type: functional; set-up: unit not given here; details: not given

SMILES | pI50
CCOC(=O)/C=C(C)/C=C/CC(C)CCCC(C)(C)C (stereo not given) | 2.5
COC(C)(C)CCCC(C)C/C=C/C(C)=C/C(=O)NC1CC1 (stereo not given) | 3.74
CSC(C)(C)CCCC(C)C/C=C/C(C)=C/C(=O)OC(C)C (stereo not given) | 3.77
CCOC(=O)/C=C(C)/C=C/CC(C)CCCC(C)(C)OC(C)=O (stereo not given) | 2.28
CCOC(=O)/C=C(C)/C=C/CC(C)CCC(OC)C(C)C (stereo not given) | 2.54
C#CCSC(=O)/C=C(C)/C=C/CC(C)CCCC(C)C (stereo not given) | 3.47
CCNC(=O)OC(C)(C)CCCC(C)C/C=C/C(C)=C/C(=O)OC(C)C (stereo not given) | 1.79
CCCC(=O)/C=C(C)/C=C/CC(C)CCCC(C)C (stereo not given) | 4.7
COC(CCC(C)C/C=C/C(C)=C/C(=O)OC(C)C)C(C)C (stereo not given) | 3.82
CCOC(=O)/C=C(C)/C=C/CC(C)CCCC(C)(C)SC (stereo not given) | 2.24
CC(/C=C/CC(C)CCCC(C)C)=C\C(=O)NCC(C)C (stereo not given) | 0.62
C=CCSC(=O)/C=C(C)/C=C/CC(C)CCCC(C)(C)OC (stereo not given) | 2.06
C#CCSC(=O)/C=C(C)/C=C/CC(C)CCCC(C)(C)OC (stereo not given) | 2.15
COC(C)(C)CCCC(C)C/C=C/C(C)=C/C(=O)OCCC(C)C (stereo not given) | 0.81
COC(C)(C)CCCC(C)C/C=C/C(C)=C/C(=O)OC(C)(C)C (stereo not given) | 3.81
CCNC(=O)/C=C(C)/C=C/CC(C)CCCC(C)C (stereo not given) | 4.76
CCOC(=O)/C=C(C)/C=C/CC(C)CCCC(C)CC (stereo not given) | 3.47
C=CCOC(=O)/C=C(C)/C=C/CC(C)CCCC(C)(C)OC (stereo not given) | 1.41
CSC(=O)/C=C(C)/C=C/CC(C)CCCC(C)C (stereo not given) | 3.25
C=CCOC(=O)/C=C(C)/C=C/CC(C)CCCC(C)C (stereo not given) | 3.51
CCSC(=O)/C=C(C)/C=C/CC(C)CCCC(C)(C)OC (stereo not given) | 3.49

SMILES | pI50
CC(/C=C/CC(C)CCCC(C)C)=C\C(=O)OCC(C)C (stereo not given) | 3.8
CCC(=O)/C=C(C)/C=C/CC(C)CCCC(C)(C)OC (stereo not given) | 5.78
CCCCOC(=O)/C=C(C)/C=C/CC(C)CCCC(C)(C)OC (stereo not given) | 0.93
C=C(C)CCCC(C)C/C=C/C(C)=C/C(=O)OCC (stereo not given) | 2.49
C=CCSC(=O)/C=C(C)/C=C/CC(C)CCCC(C)C (stereo not given) | 3.26
CC(/C=C/CC(C)CCCC(C)C)=C\C(=O)Oc1ccccc1 (stereo not given) | 1.5
CCNC(=O)/C=C(C)/C=C/CC(C)CCCC(C)(C)C (stereo not given) | 4.45
CC(/C=C/CC(C)CCCC(C)(C)Cl)=C\C(=O)OC(C)C (stereo not given) | 3.75
COC(C)(C)CCCC(C)C/C=C/C(C)=C/C(=O)SC (stereo not given) | 3.47
CCC(C)OC(=O)/C=C(C)/C=C/CC(C)CCCC(C)C (stereo not given) | 3.87
CC(/C=C/CC(C)CCCC(C)C)=C\C(=O)SC(C)C (stereo not given) | 4.22
CC(/C=C/CC(C)CCCC(C)(C)O)=C\C(=O)OC(C)C (stereo not given) | 4.33
CC(/C=C/CC(C)CCCC(C)(C)OC=O)=C\C(=O)OC(C)C (stereo not given) | 4.43
CCSC(=O)/C=C(C)/C=C/CC(C)CCCC(C)C (stereo not given) | 4.05
COC(C)(C)CCCC(C)C/C=C/C(C)=C/C(=O)OC1CC1 (stereo not given) | 2.89
C=CC(C)OC(=O)/C=C(C)/C=C/CC(C)CCCC(C)(C)OC (stereo not given) | 4.39
CCN(CC)C(=O)/C=C(C)/C=C/CC(C)CCCC(C)(C)OC (stereo not given) | 5.51
CC(/C=C/CC(C)CCCC(C)C)=C\C(=O)NC(C)C (stereo not given) | 4.33
COC(C)(C)CCCC(C)C/C=C/C(C)=C/C(N)=O (stereo not given) | 0.05
CCOC(C)(C)CCCC(C)C/C=C/C(C)=C/C(=O)OC(C)C (stereo not given) | 4.51
CCCOC(=O)/C=C(C)/C=C/CC(C)CCCC(C)(C)OC (stereo not given) | 1.65

SMILES | pI50
C=CCNC(=O)/C=C(C)/C=C/CC(C)CCCC(C)C (stereo not given) | 4.33
C=C(C)CCCC(C)C/C=C/C(C)=C/C(=O)OC(C)C (stereo not given) | 4.1
CC(C)=CCCC(C)C/C=C/C(C)=C/C(=O)OC(C)C (stereo not given) | 3.67
CC(=O)OC(C)(C)CCCC(C)C/C=C/C(C)=C/C(=O)OC(C)C (stereo not given) | 3.81
COC(C)(C)CCCC(C)C/C=C/C(C)=C/C(=O)CC(C)C (stereo not given) | 3.49
CC(/C=C/CC(C)CCCC(C)(C)OC(C)C)=C\C(=O)OC(C)C (stereo not given) | 3.01
CCN(CC)C(=O)/C=C(C)/C=C/CC(C)CCC1OC1(C)C (stereo not given) | 3.85
CCOC(=O)/C=C(C)/C=C/CC(C)CCC=C(C)C (stereo not given) | 2.38
CCOC(=O)/C=C(C)/C=C/CC(C)CCC(OC)C(C)(C)OC (stereo not given) | 1.31
COC(C)(C)C(O)CCC(C)C/C=C/C(C)=C/C(=O)OC(C)C (stereo not given) | 2.61
COC(=O)/C=C(C)/C=C/CC(C)CCCC(C)C (stereo not given) | 2.2
CCSC(=O)/C=C(C)/C=C/CC(C)CCCC(C)(C)OC(C)=O (stereo not given) | 2.83
COC(=O)/C=C(C)/C=C/CC(C)CCCC(C)(C)OC (stereo not given) | 0.89
CC(/C=C/CC(C)CCCC(C)C)=C\C(=O)c1ccccc1 (stereo not given) | 3.52
CCC(C)C(=O)/C=C(C)/C=C/CC(C)CCCC(C)(C)OC (stereo not given) | 3.54
CC(/C=C/CC(C)CCCC(C)C)=C\C(=O)N(C)C (stereo not given) | 3.7
CCOC(=O)/C=C(C)/C=C/CC(C)CCCC(C)(C)OCC (stereo not given) | 2.77
COC(C)(C)CCCC(C)C/C=C/C(C)=C/C(=O)OC1CCCC1 (stereo not given) | 4.32
CC(/C=C/CC(C)CCCC(C)C)=C\C(=O)OC(C)C (stereo not given) | 4.03
CC#CCOC(=O)/C=C(C)/C=C/CC(C)CCCC(C)C (stereo not given) | 2.12

tested on: not listed separately; assay: Partition coefficient (logP); assay type: physicochemical; details: octanol/water

SMILES | logP
COC(C)(C)CCCC(C)C/C=C/C(C)=C/C(=O)NC1CC1 (stereo not given) | 4.04

same assay, conditions: octanol/water; read-out: logP

SMILES | logP
CCOC(=O)/C=C(C)/C=C/CC(C)CCCC(C)(C)C (stereo not given) | 7.15
CCOC(=O)/C=C(C)/C=C/CC(C)CCC(OC)C(C)C (stereo not given) | 5.54
COC(C)(C)CCCC(C)C/C=C/C(C)=C/C(=O)OC(C)C (stereo not given) | 5.95
CCCC(=O)/C=C(C)/C=C/CC(C)CCCC(C)C (stereo not given) | 6.81
COC(CCC(C)C/C=C/C(C)=C/C(=O)OC(C)C)C(C)C (stereo not given) | 5.95
C#CCSC(=O)/C=C(C)/C=C/CC(C)CCCC(C)(C)OC (stereo not given) | 5.9
CCNC(=O)/C=C(C)/C=C/CC(C)CCCC(C)C (stereo not given) | 5.24
CCOC(=O)/C=C(C)/C=C/CC(C)CCCC(C)CC (stereo not given) | 7.81
CSC(=O)/C=C(C)/C=C/CC(C)CCCC(C)C (stereo not given) | 7.44
CCSC(=O)/C=C(C)/C=C/CC(C)CCCC(C)(C)OC (stereo not given) | 6.78
CC(/C=C/CC(C)CCCC(C)C)=C\C(=O)OCC(C)C (stereo not given) | 7.69
CCNC(=O)/C=C(C)/C=C/CC(C)CCCC(C)(C)C (stereo not given) | 5.65
CC(/C=C/CC(C)CCCC(C)(C)Cl)=C\C(=O)OC(C)C (stereo not given) | 6.85
CC(/C=C/CC(C)CCCC(C)C)=C\C(=O)SC(C)C (stereo not given) | 8.39
CCSC(=O)/C=C(C)/C=C/CC(C)CCCC(C)C (stereo not given) | 7.98
COC(C)(C)CCCC(C)C/C=C/C(C)=C/C(=O)OC1CC1 (stereo not given) | 5.71

SMILES | logP
CC(/C=C/CC(C)CCCC(C)C)=C\C(=O)NC(C)C (stereo not given) | 5.65
COC(C)(C)CCCC(C)C/C=C/C(C)=C/C(N)=O (stereo not given) | 3.52
CCCOC(=O)/C=C(C)/C=C/CC(C)CCCC(C)(C)OC (stereo not given) | 6.08
C=CCNC(=O)/C=C(C)/C=C/CC(C)CCCC(C)C (stereo not given) | 5.23
CC(=O)OC(C)(C)CCCC(C)C/C=C/C(C)=C/C(=O)OC(C)C (stereo not given) | 5.98
COC(C)(C)CCCC(C)C/C=C/C(C)=C/C(=O)CC(C)C (stereo not given) | 6.02
CCN(CC)C(=O)/C=C(C)/C=C/CC(C)CCC1OC1(C)C (stereo not given) | 4.04
CCOC(=O)/C=C(C)/C=C/CC(C)CCC(OC)C(C)(C)OC (stereo not given) | 4.34
COC(=O)/C=C(C)/C=C/CC(C)CCCC(C)C (stereo not given) | 6.2
CC(/C=C/CC(C)CCCC(C)C)=C\C(=O)c1ccccc1 (stereo not given) | 7.26
CCC(C)C(=O)/C=C(C)/C=C/CC(C)CCCC(C)(C)OC (stereo not given) | 6.02
CC(/C=C/CC(C)CCCC(C)C)=C\C(=O)N(C)C (stereo not given) | 4.94
CC#CCOC(=O)/C=C(C)/C=C/CC(C)CCCC(C)C (stereo not given) | 6.4
CCOC(=O)/C=C(C)/C=C/CC(C)CCCC(C)C (stereo not given) [HYDROPRENE] | 6.74
C#CCOC(=O)/C=C(C)/C=C/CC(C)CCCC(C)C (stereo not given) [KINOPRENE] | 5.86

More lines, now with the values ahead:

logP | SMILES
6.77 | CSC(C)(C)CCCC(C)C/C=C/C(C)=C/C(=O)OC(C)C (stereo not given)
5.57 | CCOC(=O)/C=C(C)/C=C/CC(C)CCCC(C)(C)OC(C)=O (stereo not given)
4.79 | COC(C)(C)CCCC(C)C/C=C/C(C)=C/C(=O)O (stereo not given)
5.07 | C#CCSC(=O)/C=C(C)/C=C/CC(C)CCCC(C)C (stereo not given)
6.06 | CCNC(=O)OC(C)(C)CCCC(C)C/C=C/C(C)=C/C(=O)OC(C)C (stereo not given)
8.39 | CCSC(=O)/C=C(C)/C=C/CC(C)CCCC(C)(C)C (stereo not given)
6.36 | CCOC(=O)/C=C(C)/C=C/CC(C)CCCC(C)(C)SC (stereo not given)
6.19 | CC(/C=C/CC(C)CCCC(C)C)=C\C(=O)NCC(C)C (stereo not given)
7.56 | CC(/C=C/CC(C)CCCC(C)(C)C)=C\C(=O)OC(C)C (stereo not given)
6.77 | C=CCSC(=O)/C=C(C)/C=C/CC(C)CCCC(C)(C)OC (stereo not given)
7.03 | COC(C)(C)CCCC(C)C/C=C/C(C)=C/C(=O)OCCC(C)C (stereo not given)
6.36 | COC(C)(C)CCCC(C)C/C=C/C(C)=C/C(=O)OC(C)(C)C (stereo not given)
5.53 | C=CCOC(=O)/C=C(C)/C=C/CC(C)CCCC(C)(C)OC (stereo not given)
6.73 | C=CCOC(=O)/C=C(C)/C=C/CC(C)CCCC(C)C (stereo not given)
5.07 | CCC(=O)/C=C(C)/C=C/CC(C)CCCC(C)(C)OC (stereo not given)
6.62 | CCCCOC(=O)/C=C(C)/C=C/CC(C)CCCC(C)(C)OC (stereo not given)
6.19 | C=C(C)CCCC(C)C/C=C/C(C)=C/C(=O)OCC (stereo not given)
7.97 | C=CCSC(=O)/C=C(C)/C=C/CC(C)CCCC(C)C (stereo not given)

logP | SMILES
7.67 | CC(/C=C/CC(C)CCCC(C)C)=C\C(=O)Oc1ccccc1 (stereo not given)
6.24 | COC(C)(C)CCCC(C)C/C=C/C(C)=C/C(=O)SC (stereo not given)
7.69 | CCC(C)OC(=O)/C=C(C)/C=C/CC(C)CCCC(C)C (stereo not given)
5.06 | CC(/C=C/CC(C)CCCC(C)(C)O)=C\C(=O)OC(C)C (stereo not given)
5.4 | CC(/C=C/CC(C)CCCC(C)(C)OC=O)=C\C(=O)OC(C)C (stereo not given)
5.94 | C=CC(C)OC(=O)/C=C(C)/C=C/CC(C)CCCC(C)(C)OC (stereo not given)
4.82 | CCN(CC)C(=O)/C=C(C)/C=C/CC(C)CCCC(C)(C)OC (stereo not given)
6.49 | CCOC(C)(C)CCCC(C)C/C=C/C(C)=C/C(=O)OC(C)C (stereo not given)
6.6 | C=C(C)CCCC(C)C/C=C/C(C)=C/C(=O)OC(C)C (stereo not given)
6.6 | CC(C)=CCCC(C)C/C=C/C(C)=C/C(=O)OC(C)C (stereo not given)
6.9 | CC(/C=C/CC(C)CCCC(C)(C)OC(C)C)=C\C(=O)OC(C)C (stereo not given)
6.19 | CCOC(=O)/C=C(C)/C=C/CC(C)CCC=C(C)C (stereo not given)
3.86 | COC(C)(C)C(O)CCC(C)C/C=C/C(C)=C/C(=O)OC(C)C (stereo not given)
6.81 | CCSC(=O)/C=C(C)/C=C/CC(C)CCCC(C)(C)OC(C)=O (stereo not given)
5 | COC(=O)/C=C(C)/C=C/CC(C)CCCC(C)(C)OC (stereo not given)
6.08 | CCOC(=O)/C=C(C)/C=C/CC(C)CCCC(C)(C)OCC (stereo not given)
7.01 | COC(C)(C)CCCC(C)C/C=C/C(C)=C/C(=O)OC1CCCC1 (stereo not given)
7.15 | CC(/C=C/CC(C)CCCC(C)C)=C\C(=O)OC(C)C (stereo not given)
